# Legend:
# Assay type in all cases: in vivo, rat
# ChAT = ChAT immunoreactivity in striatum after quinolinic acid induced injury; details: adult male Wistar rats, 3 μg GPE into right lateral ventricle 2 hours after quinolinic acid, 3 days; no statistics; FIG. 6
# Excerpt: (§1) The objective of this study was to determine the effect of GPE administration on the expression of GAD, NOS and ChAT in the presence or absence of injury to the striatum induced by quinolinic acid. When injected into the striatum in experimental animals quinolinic acid produces lesions arising from the loss of striatopallidal and striatonigral GABAergic projection neurons, but spares the axons in the striatum (Science, 219, 316-318 [1983]). Rats were either treated with a control vehicle or GPE 2 hours after administration of quinolinic acid.
# (§2) A total of 14 adult male Wistar rats (280-310 g) were used in this investigation. Eight rats were anaesthetized using halothane/O2 anaesthesia. An injection of quinolinic acid ([…], Sigma, dissolved in 4M NaOH) was stereotaxically placed in the dorsal region of the right striatum 0.8 mm anterior to bregma, 2.5 mm lateral to the midline and 4.0 mm ventral to the pial surface. […]
# (§3) The size of the striatal region used for the count was measured using an image analyser (Mocha image analysis software). […] The data has not been analysed for statistical signigicance. Tissue from one of the GPE treated animals was unable to be counted.
# [1] = test system: neuronal nitric oxide synthetase (NOS); assay: NOS immunopositive striatal neuron count after hypoxic-ischemic injury; details: adult Wistar rats, 3 ug GPE 2 hours after hypoxia, striatum counted 3 days after injury, vs vehicle; #p=0.072, *p=0.008; FIG. 3
# Protocol: (§4) The objective of these studies was to determine the effects of administering GPE on expression of NOS in the presence or absence of CNS injury. The experiment involved treating the rats with a control vehicle or GPE 2 hours after a focal CNS injury. […] The degree and length of hypoxia, the ambient temperature and humidity were defined to standardise the degree of damage. The neuronal death is restricted to the side of the carotid ligation and is primarily in the hippocampus, dentate gyrus, striatum and lateral cortex of the ligated hemisphere. There is no neuronal loss in the contralateral hemisphere.
# (§5) Specifically, nine pairs of adult wistar rats (280-320 g) were prepared under halothane/O2 anaesthesia. The right side carotid artery was ligated. A guide cannula was placed on the dura 7.5 mm anterior from stereotaxic zero and 1.5 mm from midline on the right. The rats were allowed to recover for 1 hour and were then placed in an incubator with humidity 90+/−5% and temperature 31+/−0.5° C. for 1 hour before hypoxia. Oxygen concentration was reduced and maintained at 6+/−0.202% for 10 minutes. […]
# (§6) The size of the striatal region used for the count was measured using an image analyser. […] Data were analysed with paired t-test and presented as mean +/− sem.
# NOS = NOS immunoreactivity in striatum after quinolinic acid induced injury; details: adult male Wistar rats, 3 days, FIG. 5
# Excerpt: as §1, §2, §3
# [2] = test system: Choline acetyltransferase (ChAT); assay: ChAT immunopositive striatal neuron count after hypoxic-ischemic injury; details: adult Wistar rats, 3 ug GPE centrally via guide cannula 2 hours after hypoxia, striatum counted 3 days after injury, vs vehicle; FIG. 1
# Protocol: as §4, with “ChAT” for “NOS”, “hippocarnpus,” for “hippocampus,”
# as §5, with “(280-320g)” for “(280-320 g)”
# as §6
# GAD [3] = assay: GAD immunoreactivity in striatum after quinolinic acid induced injury; details: adult male Wistar rats, 3 μg GPE into right lateral ventricle 2 hours after quinolinic acid, 3 days, vs vehicle; no statistics; FIG. 4
# Excerpt: as §1, §2, §3
# GAD [4] = assay: GAD immunopositive striatal neuron count after hypoxic-ischemic injury; details: adult Wistar rats, 3 ug GPE 2 hours after hypoxia, striatum counted 3 days after injury, vs vehicle; *p<0.05; FIG. 2
# Protocol: The objective of these studies was to determine the effects of administering GPE on expression of GAD in the presence or absence of CNS injury. The experiment involved treating the rats with a control vehicle or GPE 2 hours after a focal CNS injury. […] The degree and length of hypoxia, the ambient temperature and humidity were defined to standardise the degree of damage. The neuronal death is restricted to the side of the carotid ligation and is primarily in the hippocampus, dentate gyrus, striatum and lateral cortex of the ligated hemisphere. There is no neuronal loss in the contralateral hemisphere. Specifically, nine pairs of adult wistar rats (280-320 g) were prepared under halothane/O2 anaesthesia. The right side carotid artery was ligated. A guide cannula was placed on the dura 7.5 mm anterior from stereotaxic zero and 1.5 mm from midline on the right. The rats were allowed to recover for 1 hour and were then placed in an incubator with humidity 90+/-5% and temperature 31+/-0.5° C. for 1 hour before hypoxia. Oxygen concentration was reduced and maintained at 6+/-0.202% for 10 minutes. […] The size of the striatal region used for the count was measured using an image analyser. […] Data were analysed with paired t-test and presented as mean +/- sem.
substance,measurement,setting,value
Gly-Pro-Glu [GPE],levels of ChAT (ChAT-positive striatal neurons),ChAT,upregulated the levels of ChAT to above normal on the right (injured) side of the brain
same,number of NOS immunopositive neurons,[1],increased in both the right and left (uninjured) sides
same,"NOS enzyme levels relative to normal, left (non-injured) side","NOS; 3 μg GPE 2 hours after quinolinic acid, compared with normal controls",restoring the enzyme levels to normal
same,NOS enzyme expression (NOS-positive striatal neurons),"NOS; 3 μg GPE into right lateral ventricle 2 hours after quinolinic acid, vs vehicle, no statistics",upregulation of enzyme expression on both sides of the brain
same,number of ChAT immunopositive neurons,[2],increased in both the right and left (uninjured) sides
same,GAD expression (GAD-positive striatal neurons),GAD [3],upregulation of GAD expression on both sides of the brain
same,number of GAD immunopositive neurons,GAD [4],increased in the right side
